Test results: paper PMC9807592, “New thioxothiazolidinyl-acetamides derivatives as potent urease inhibitors: design, synthesis, in vitro inhibition, and molecular dynamic simulation” (Scientific Reports, 2023)
Converted amounts (≈) assume the structure as drawn. Where two headings read alike, the source gives them in different places.

Experiments:
[1] = In vitro cytotoxic evaluation (MTT assay); assay type: cell-based; conditions: human, MOLT-4 cells
Experimental: MOLT-4 (human acute lymphoblastic leukemia) cells were cultures in RPMI-1640 medium supplemented with 10% heat-inactivated fetal bovine serum. Cell viability was measured by the MTT assay. MOLT-4 cells were seeded into 96-well micro-culture plates. After 24 h, the culture medium was replaced with a medium containing different concentrations of newly synthesized derivatives. Control wells were supplemented with the same volume of growth medium not containing any drugs. Cells were then incubated at 37 °C for 72 h. At the end of the exposure time, the medium was removed and MTT solution of 0.5 mg/ml was added to each well. The plates were incubated at 37 °C for 4 h, after which DMSO was added to each well to solubilize the formed formazan crystals, and the absorbance of each well was read with a microplate reader at 570 nm.

C. albicans ATCC 10261 = experiment: Antimicrobial activity, broth microdilution (CLSI); assay type: cell-based; conditions: Candida albicans, ATCC10261
Experimental: The antimicrobial activity of designed compounds was investigated using broth microdilution.
Briefly, twofold serial dilutions of the compounds were prepared in Mueller–Hinton Broth (MHB, HiMedia) for bacterial strains and RPMI-1640 (Sigma-Aldrich) for yeast strain (Ranging 1–512 µg/ml). Then, 100 μL of each dilution was transferred into the well of a microtiter plate and inoculated with 100 μL of cell suspension with a final density of 1–5 × 10^3 CFU/ml for yeasts and 1–1.5 × 10^6 cells/ml for bacteria. Plates were incubated at proper temperature overnight, and the minimum inhibitory concentration (MIC) of compounds was determined as the lowest concentration that prevented visible growth of tested microorganisms compared with the growth in the control wells (wells without tested compounds). Moreover, the minimum bactericidal/fungicidal concentration (MBC/MFC) of compounds was determined by transferring the 10 µl of clear wells into the agar media. Standard antibacterial and antifungal agents (Ciprofloxacin and Fluconazole) were evaluated. All experiments were performed in duplicate[30],[31].

S. aureus ATCC 25923 = experiment: Antimicrobial activity, broth microdilution (CLSI); assay type: cell-based; conditions: Staphylococcus aureus, ATCC25923
Experimental: (§1) Then, 100 μL of each dilution was transferred into the well of a microtiter plate and inoculated with 100 μL of cell suspension with a final density of 1–5 × 10^3 CFU/ml for yeasts and 1–1.5 × 10^6 cells/ml for bacteria. Plates were incubated at proper temperature overnight, and the minimum inhibitory concentration (MIC) of compounds was determined as the lowest concentration that prevented visible growth of tested microorganisms compared with the growth in the control wells (wells without tested compounds). […] All experiments were performed in duplicate[30],[31].

E. coli ATCC 25922 = experiment: Antimicrobial activity, broth microdilution (CLSI); assay type: cell-based; conditions: Escherichia coli, ATCC25922, read-out: MIC
Experimental: as §1

[2] = test system: clinical isolate of P. vulgaris; experiment: Antimicrobial activity, broth microdilution (CLSI); assay type: cell-based; conditions: Proteus vulgaris
Experimental: as §1

urease [3] = molecular target: T1, urease (Canavalia ensiformis, UniProt P07374); experiment: biochemical; assay type: biochemical
Experimental: The assay was performed exactly according to our previous report. Briefly, 850 μL of urea and 15 μL urease (0.135 units dissolved in PBS, pH 7.4) were added to 100 μL of the synthesized derivatives at different concentrations. After 30 min, to 100 μL of the incubated solution, 500 μL solution I (5.0 g phenol and 25.0 mg sodium nitroprusside in 500 mL water) was added followed by the addition of 500 μL of solution II (2.5 g sodium hydroxide, 4.2 mL sodium hypochlorite, and 5% chlorine in 500 mL water) which was further incubated at 37 °C for 30 min. The absorbance was determined by measuring indophenols at 625 nm. Thiourea was used as the standard inhibitor for urease. The IC50 values for all synthesized compounds were calculated using GraphPad Prism software (GraphPad Software, Inc., San Diego, CA)[20].

[4] = test system: urease-positive clinical isolate of P. vulgaris; experiment: Urease inhibitory activity against P. vulgaris (Christensen's urea medium, 560 nm); assay type: cell-based; conditions: Proteus vulgaris; for IC50: 24 h at 37 °C, read at 560 nm
Experimental: To assess the inhibition of urease activity by synthetic compounds, Christensen’s urea.
medium containing urea and phenol red (pH indicator) was used for the preparation of two-fold serial dilutions of compounds in 96-well microtiter plates. Cell suspension of a urease-positive clinical isolate of P. vulgaris was prepared in a urea medium and added to each well. The turbidity of bacterial suspension was adjusted to 0.5 McFarland using a spectrophotometer, and also, the density of inoculated suspension was 1 × 10^6 CFU/ml. The concentrations of compounds were in the range of 1–512 µg/ml.
Inoculated media without adding any compound was considered a positive control, while uninoculated media were used as a negative control (blank). The anti-urease activity was assessed spectroscopically at 560 nm after 24 h incubation at 37 °C[14].

urease [5] = molecular target: T1, urease; experiment: Enzyme kinetic study of urease inhibition (Lineweaver–Burk); assay type: biochemical
Experimental: A Lineweaver–Burk plot was generated to identify the type of inhibition, and the Michaelis–Menten constant (Km) value was determined from the plot between the reciprocal of the substrate concentration (1/[S]) and reciprocal of enzyme rate (1/V) over various inhibitor concentrations. The experimental inhibitor constant (Ki) value was constructed by secondary plots of the inhibitor concentration [I] versus Km.

urease [6] = conditions: read-out: IC50, urease inhibition, cited from earlier work
[7] = mean ± SEM, at least three experiments, read-out: IC50 (μM), urease inhibitory activity

T1 sequence (P07374 whole entry, looked up): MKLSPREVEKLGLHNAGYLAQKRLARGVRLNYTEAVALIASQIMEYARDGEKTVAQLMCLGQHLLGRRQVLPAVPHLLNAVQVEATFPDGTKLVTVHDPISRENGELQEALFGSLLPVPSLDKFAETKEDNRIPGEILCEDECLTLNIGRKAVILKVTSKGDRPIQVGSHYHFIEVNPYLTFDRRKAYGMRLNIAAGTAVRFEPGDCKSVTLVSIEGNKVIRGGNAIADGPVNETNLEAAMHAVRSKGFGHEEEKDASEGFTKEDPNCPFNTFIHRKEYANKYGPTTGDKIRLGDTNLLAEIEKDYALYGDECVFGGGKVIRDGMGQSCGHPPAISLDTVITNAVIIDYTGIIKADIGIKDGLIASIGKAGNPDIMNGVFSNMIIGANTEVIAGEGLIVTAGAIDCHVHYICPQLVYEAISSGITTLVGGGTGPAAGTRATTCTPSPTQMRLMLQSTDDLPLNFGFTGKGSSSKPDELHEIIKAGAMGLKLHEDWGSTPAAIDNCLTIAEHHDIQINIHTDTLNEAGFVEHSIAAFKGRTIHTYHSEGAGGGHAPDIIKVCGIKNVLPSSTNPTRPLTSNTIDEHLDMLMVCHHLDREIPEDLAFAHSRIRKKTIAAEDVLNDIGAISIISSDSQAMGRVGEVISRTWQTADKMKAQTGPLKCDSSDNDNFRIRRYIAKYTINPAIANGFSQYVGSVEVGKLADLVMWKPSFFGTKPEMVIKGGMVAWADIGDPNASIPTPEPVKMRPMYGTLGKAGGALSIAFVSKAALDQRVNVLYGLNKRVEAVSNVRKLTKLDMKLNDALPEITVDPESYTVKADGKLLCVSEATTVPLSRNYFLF

| Compound | viability at 72 h, 100 µM [1] [%] | melting point [°C] | MIC (C. albicans ATCC 10261) [µg/mL] | MIC (S. aureus ATCC 25923) [µg/mL] | MIC (E. coli ATCC 25922) [µg/mL] | MIC [2] [µg/mL] | IC50 (urease [3]) [µM] | IC50 [4] [µg/mL] | other results |
| --- | --- | --- | --- | --- | --- | --- | --- | --- | --- |
| COc1cccc2c1C(=O)c1c(O)c3c(c(O)c1C2=O)C[C@@](O)(C(=O)CO)C[C@@H]3O[C@H]1C[C@H](N)[C@H](O)[C@H](C)O1 [Doxorubicin, reference compound] |  |  |  |  |  |  |  |  | IC50 at 72 h ([1]; read-out: IC50 (µM), cytotoxicity): 12.7 ± 2.4 µM |
| Cc1ccc(CNC(=O)CC2SC(=S)N(Cc3ccccc3)C2=O)cc1 (stereo not shown) [Compound 6b, 2-(3-benzyl-4-oxo-2-thioxothiazolidin-5-yl)-N-(4-methylbenzyl)acetamide] | 91.2 ± 4.2 | 167 to 169 | > 512 | > 512 | > 512 | > 512 | 4.02 ± 1.12 |  |  |
| OC(Cn1cncn1)(Cn1cncn1)c1ccc(F)cc1F [Fluconazole, reference compound] |  |  | 4 (≈ 13.1 µM) |  |  |  |  |  |  |
| CCCNC(=O)CC1SC(=S)N(Cc2ccccc2)C1=O (stereo not shown) [Compound 6d, 2-(3-benzyl-4-oxo-2-thioxothiazolidin-5-yl)-N-propylacetamide] | 95.5 ± 3.2 | 165 to 167 | > 512 | > 512 | > 512 | > 512 | 1.85 ± 0.66 | 126 ± 8.65 (≈ 390 µM) |  |
| CCCCN1C(=O)C(CC(=O)NCc2ccc(C)cc2)SC1=S (stereo not shown) [Compound 6j, 2-(3-butyl-4-oxo-2-thioxothiazolidin-5-yl)-N-(4-methylbenzyl)acetamide] | 97.7 ± 4.6 | 174 to 176 |  |  |  |  | 5.66 ± 0.79 |  |  |
| CCCCN1C(=O)[C@@H](CC(=O)NCc2ccccc2)SC1=S (racemic) [Compound 6i, N-benzyl-2-(3-butyl-4-oxo-2-thioxothiazolidin-5-yl)acetamide] | 97.8 ± 2.5 | 172 to 174 | > 512 | > 512 | > 512 | > 512 | 1.47 ± 0.11 | 17.8 ± 3.75 (≈ 52.8 µM) | Ki (urease [5]): 1.17 µM; type of inhibition (urease [5]; Lineweaver–Burk plot, 6i at 0, 0.5, 1 and 2 µM): competitive |
| O=C(CC1SC(=S)N(Cc2ccccc2)C1=O)NCc1ccc(F)cc1 (stereo not shown) [Compound 6c, 2-(3-benzyl-4-oxo-2-thioxothiazolidin-5-yl)-N-(4-fluorobenzyl)acetamide] | 92.7 ± 3.6 | 169 to 171 | > 512 | > 512 | > 512 | > 512 | 2.15 ± 0.18 |  |  |
| NC(=O)NO [Hydroxyurea, reference compound] |  |  |  |  |  |  |  |  | IC50 (urease [3]; mean ± SEM, at least three experiments, listed as hydroxyurea, read-out: IC50 (μM), urease inhibitory activity): 100 µM; IC50 (urease [3]; [7]): 100 ± 2.5 µM |
| Cc1ccc(CNC(=O)CC2SC(=S)N(CC(C)C)C2=O)cc1 (stereo not shown) [Compound 6m, 2-(3-isobutyl-4-oxo-2-thioxothiazolidin-5-yl)-N-(4-methylbenzyl)acetamide] | 97.7 ± 2.9 | 173 to 175 | > 512 | > 512 | > 512 | > 512 | 3.09 ± 1.08 |  |  |
| CC(C)CN1C(=O)C(CC(=O)NCc2ccccc2)SC1=S (stereo not shown) [Compound 6l, N-benzyl-2-(3-isobutyl-4-oxo-2-thioxothiazolidin-5-yl)acetamide] | 93.6 ± 4.5 | 169 to 171 | > 512 | > 512 | > 512 | > 512 | 4.38 ± 0.61 |  |  |
| O=C(CC1SC(=S)N(Cc2ccccc2)C1=O)NCc1ccccc1 (stereo not shown) [Compound 6a, N-benzyl-2-(3-benzyl-4-oxo-2-thioxothiazolidin-5-yl)acetamide] | 95.5 ± 2.7 | 168 to 170 | > 512 | > 512 | > 512 | > 512 | 2.22 ± 0.36 |  |  |
| O=C(O)[C@@H]1CSCN1 [A] |  |  |  |  |  |  |  |  | IC50 (urease [6]; thiazolidine carboxylic acid lead): 3.03 ± 0.098 µM |
| N#Cc1ccc(C(=O)NN2C(=O)CSC2c2ccccc2O)cc1 (stereo not shown) [D] |  |  |  |  |  |  |  |  | IC50 (urease [6]; arylhydrazide Schiff base-thiazolidinones): 4.1 ± 0.02 µM |
| COc1cc(/C=N\N=C2\NC(=O)CS2)c(OC)cc1Br [C] |  |  |  |  |  |  |  |  | IC50 (urease [6]; 4-thiazolidinone analogs): 1.73 ± 1 µM |
| C=CCNC(=O)CC1SC(=S)N(Cc2ccccc2)C1=O (stereo not shown) [Compound 6g, N-allyl-2-(3-benzyl-4-oxo-2-thioxothiazolidin-5-yl)acetamide] | 91.6 ± 3.7 |  | > 512 | > 512 | > 512 | > 512 | 1.61 ± 0.5 | 61.7 ± 6.41 (≈ 192 µM) |  |
| CC(C)CNC(=O)CC1SC(=S)N(Cc2ccccc2)C1=O (stereo not shown) [Compound 6f, 2-(3-benzyl-4-oxo-2-thioxothiazolidin-5-yl)-N-isobutylacetamide] | 91.9 ± 1.3 | 164 to 166 | > 512 | > 512 | > 512 | > 512 | 1.59 ± 0.47 | 32.4 ± 5.26 (≈ 96.2 µM) |  |
| NC(N)=S [Thiourea, reference compound] |  |  |  |  |  |  |  |  | IC50 (urease [3]; [7]): 23.6 ± 0.84 µM |
| O=C(CC1SC(=S)N(Cc2ccccc2)C1=O)NC1CCCC1 (stereo not shown) [Compound 6h, 2-(3-benzyl-4-oxo-2-thioxothiazolidin-5-yl)-N-cyclopentylacetamide] | 95 ± 4.2 | 167 to 169 | > 512 | > 512 | > 512 | > 512 | 1.86 ± 0.29 | ≥ 512 | inhibition at 512 µg/mL ([4]; at 512 µg/ml): 48.5% |
| CCCCN1C(=O)C(CC(=O)NCC(C)C)SC1=S (stereo not shown) [Compound 6k, 2-(3-butyl-4-oxo-2-thioxothiazolidin-5-yl)-N-isobutylacetamide] | 98.5 ± 1.4 | 170 to 172 | > 512 | > 512 | > 512 | > 512 | 1.91 ± 0.57 |  |  |
| CCCCNC(=O)CC1SC(=S)N(Cc2ccccc2)C1=O (stereo not shown) [Compound 6e, 2-(3-benzyl-4-oxo-2-thioxothiazolidin-5-yl)-N-butylacetamide] | 91.7 ± 2.8 | 166 to 168 | > 512 | > 512 | > 512 | > 512 | 1.64 ± 0.45 | 15.3 ± 2.4 (≈ 45.4 µM) |  |
